Literature values in patent publication US20040147522A1, “Compounds having both alpha7 nicotinic agonist activity and 5HT3 antagonist activity for the treatment of CNS diseases” (priority 2002, published 2004).
One block for each molecule: values may come before it.

Columns and labels:
5HT3R = target: T1, 5HT3R (Homo sapiens, UniProt P46098)
T1 sequence (P46098 24-478): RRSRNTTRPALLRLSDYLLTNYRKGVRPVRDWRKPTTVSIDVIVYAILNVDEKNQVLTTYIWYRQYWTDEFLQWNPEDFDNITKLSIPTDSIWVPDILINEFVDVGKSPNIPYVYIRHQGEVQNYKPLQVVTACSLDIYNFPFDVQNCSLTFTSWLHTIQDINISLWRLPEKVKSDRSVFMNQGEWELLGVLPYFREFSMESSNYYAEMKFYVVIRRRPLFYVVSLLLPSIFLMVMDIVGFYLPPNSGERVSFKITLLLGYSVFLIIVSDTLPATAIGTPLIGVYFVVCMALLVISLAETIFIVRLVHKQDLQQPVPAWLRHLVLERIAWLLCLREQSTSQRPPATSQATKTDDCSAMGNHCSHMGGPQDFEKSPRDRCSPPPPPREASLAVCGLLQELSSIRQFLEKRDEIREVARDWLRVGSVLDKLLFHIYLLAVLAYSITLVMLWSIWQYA

α7 nAChR = α7 nAChR (Homo sapiens, UniProt P36544)
Sequence of α7 nAChR (P36544 23-502): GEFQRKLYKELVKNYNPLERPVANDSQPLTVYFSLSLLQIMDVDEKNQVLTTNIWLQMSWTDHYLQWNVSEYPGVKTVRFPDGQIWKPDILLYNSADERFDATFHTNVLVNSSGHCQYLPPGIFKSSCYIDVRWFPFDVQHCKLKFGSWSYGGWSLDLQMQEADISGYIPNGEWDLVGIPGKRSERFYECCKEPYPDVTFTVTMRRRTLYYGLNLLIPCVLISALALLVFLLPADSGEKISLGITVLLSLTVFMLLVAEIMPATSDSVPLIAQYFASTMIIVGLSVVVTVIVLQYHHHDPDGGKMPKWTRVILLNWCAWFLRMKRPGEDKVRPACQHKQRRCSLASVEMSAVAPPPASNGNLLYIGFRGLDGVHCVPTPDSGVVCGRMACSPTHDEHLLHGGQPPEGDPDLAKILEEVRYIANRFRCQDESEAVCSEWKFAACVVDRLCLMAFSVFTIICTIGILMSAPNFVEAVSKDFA

activity at the 5HT3R (5HT3R): little activity
Structure (SMILES): COc1ccc(/C=C2\CCCN=C2c2cccnc2)c(OC)c1 [GTS-21]

activity at the α7 nAChR (α7 nAChR): little activity
Structure (SMILES): Cc1nccn1CC1CCc2c(c3ccccc3n2C)C1=O (stereo not drawn) [Ondansetron]

α7 nicotinic agonist activity (α7 nAChR; reported by Macor et al. 2001): α7 nicotinic agonist activity
Structure (SMILES): CN1[C@@H]2CC[C@H]1C[C@@H](OC(=O)c1c[nH]c3ccccc13)C2 [tropesitron]
